1 compound from patent publication US20240124470A1, “FIVE-MEMBERED RING DERIVATIVE AND MEDICAL USE THEREOF” (SICHUAN HAISCO PHARMACEUTICAL CO., LTD., priority 2020, published 2024) can be followed below.

A short description of data set [1]: Evaluation of pharmacokinetics in cynomolgus monkeys. In kind it is in vivo. The following applies: intravenous 2 mg/kg and intragastric 10 mg/kg. On the procedure:
Evaluation of Pharmacokinetics in Cynomolgus Monkeys
Male cynomolgus monkeys (raised in Suzhou LEOLAB Bio Tech. Co., Ltd.), weighing 3-5 kg, were fasted overnight (14-18 h), […]. On the day of the experiment, 6 male cynomolgus monkeys were divided into 2 groups, with 3 […] in each group. The test compound was administered intravenously and intragastrically at doses of 2 mg/kg and 10 mg/kg respectively. Before administration and 5 min, 15 min, 30 min, 1 h, 2 h, 4 h, 6 h, 8 h 10 h, 12 h and 24 h after administration, 1 ml of blood was collected via the limb vein, placed in an EDTAK2 centrifuge tube, and centrifuged at 6000 rpm at 4° C. for 5 min, and then the plasma was collected. The plasma sample was added to an acetonitrile solution containing an internal standard (dexamethasone, 500 ng/mL), vortexed and centrifuged at 10,000 rpm for 10 min, and the supernatant was taken for LC-MS/MS analysis. Pharmacokinetic parameters were calculated using the non-compartmental model in WinNonlin Version 8.0 (Pharsight, Mountain View, CA) pharmacokinetic software. Conclusion: The compounds of the present invention have good metabolic properties.

Data set [2] in a line: Evaluation of pharmacokinetics in mice. It counts as in vivo. The following applies: male, mouse, plasma, oral; C57 mice, intravenous 5 mg/kg and intragastric 20 mg/kg. On the procedure:
Evaluation of Pharmacokinetics in Mice
Male C57 mice (purchased from Hunan SJA Laboratory Animal Co., Ltd, license number: SCXK (Xiang) 2019-0004), 20-25 g, were fasted overnight. On the day of the experiment, 18 male C57 mice were divided into 2 groups, with 9 mice in each group. The test compound was administered intravenously and intragastrically at doses of 5 mg/kg and 20 mg/kg respectively. Before administration and 5 min, 15 min, 30 min, 1 h, 2 h, 4 h, 6 h, 8 h and 24 h after administration, 0.1 ml of blood was collected from the orbital venous plexus, placed in an EDTAK2 centrifuge tube, and centrifuged at 6000 rpm at 4° C. for 5 min, and then the plasma was collected. The plasma sample was added to an acetonitrile solution containing an internal standard (dexamethasone, 500 ng/mL), vortexed and centrifuged at 10,000 rpm for 10 min, and the supernatant was taken for LC-MS/MS analysis. Pharmacokinetic parameters were calculated using the non-compartmental model in WinNonlin Version 8.0 (Pharsight, Mountain View, CA) pharmacokinetic software.

Data set [3] concerns the target T1, hERG potassium channel (Homo sapiens, UniProt Q12809).
T1 construct: expressed in transfected cells
Put plainly: Effects on hERG potassium channels, manual whole cell patch-clamp in CHO cells. It counts as cell-based. The settings on record: hERG potassium current, room temperature. The text has this: 2. Effects of the Compounds on hERG Potassium Channels
Experimental platform: electrophysiological manual patch-clamp system
Cell line: Chinese hamster ovary (CHO) cells stably expressing hERG potassium ion channel
Experimental method: For CHO (Chinese Hamster Ovary) cells stably expressing hERG potassium channel, whole cell patch-clamp technique was used to recorded hERG potassium channel current at room temperature in this experiment. The glass microelectrode is made of a glass electrode blank (BF150-86-10, Sutter) by a puller. The tip resistance after filling the liquid in the electrode is about 2-5 MΩ. The glass microelectrode can be connected to the patch-clamp amplifier by inserting the glass microelectrode into an amplifier probe. The clamping voltage and data recording are controlled and recorded by the pClamp 10 software through a computer. The sampling frequency is 10 kHz, and the filtering frequency is 2 kHz. After the whole cell records were obtained, the cells were clamped at −80 mV, and the step voltage that induced the hERG potassium current (IhERG) was depolarized from −80 mV to +20 mV for 2 s, then repolarized to −50 mV, and returned to −80 mV after 1 s. This voltage stimulation was given every 10 s, and the administration process was started after the hERG potassium current was confirmed to be stable (at least 1 minute). The compound was administered for at least 1 minute at each test concentration, and at least 2 cells (n≥2) were tested at each concentration.
Data analysis processing was carried out by using pClamp 10, GraphPad Prism 5 and Excel software. The inhibition degree of hERG potassium current (peak value of hERG tail current induced at −50 mV) at different compound concentrations was calculated by the following formula: Inhibition %=[1−(I/Io)]×100%.
Among the formula, Inhibition % represents the percentage of inhibition of hERG potassium current by the compound, and I and Io represent the amplitude of hERG potassium current after and before dosing, respectively.
Compound IC50 was calculated using GraphPad Prism 5 software by fitting according to the following equation:
Y=Bottom+(Top−Bottom)/(1+10^((LogIC50−X)×HillSlope))
Among the equation, X represents the Log value of the tested concentration of the test sample, Y represents the inhibition percentage at the corresponding concentration, and Bottom and Top represent the minimum and maximum inhibition percentage, respectively.
For orientation: The hERG channel carries a current that helps repolarise heart muscle cells.

Data set [4] deals with T2, CYP3A4-M (Homo sapiens, UniProt P08684).
T2 construct: pre-incubated with the human liver microsome solutions containing 5 enzyme mixed substrates; from tissue; host or cells: human liver microsomes
T2 sequence (P08684 whole entry): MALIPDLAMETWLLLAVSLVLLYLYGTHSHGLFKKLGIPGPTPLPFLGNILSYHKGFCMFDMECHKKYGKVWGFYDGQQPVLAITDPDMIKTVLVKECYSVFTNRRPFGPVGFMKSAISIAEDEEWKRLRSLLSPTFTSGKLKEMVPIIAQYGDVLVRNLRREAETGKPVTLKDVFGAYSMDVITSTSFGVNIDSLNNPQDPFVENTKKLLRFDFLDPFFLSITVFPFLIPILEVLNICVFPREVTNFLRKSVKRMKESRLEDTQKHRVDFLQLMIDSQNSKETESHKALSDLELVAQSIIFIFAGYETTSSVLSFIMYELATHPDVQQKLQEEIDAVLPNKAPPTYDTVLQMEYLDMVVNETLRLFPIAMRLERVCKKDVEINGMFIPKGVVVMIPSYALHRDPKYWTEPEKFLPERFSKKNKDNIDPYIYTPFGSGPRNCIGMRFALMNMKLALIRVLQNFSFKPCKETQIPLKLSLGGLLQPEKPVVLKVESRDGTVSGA
The data set is described as follows: Cytochrome P450 isoenzyme inhibition test, human liver microsomes: CYP3A4-M. In kind it is in vitro ADME. The following applies: human liver microsomes 0.1 mg/mL; read-out: IC50, inhibitory activity on CYP3A4-M. On the procedure:
9. Cytochrome P450 Isoenzyme Inhibition Test Experimental objective: The inhibitory effect of the test compound on the activity of human liver microsomal cytochrome P450 isoenzyme (CYP1A2, CYP2C19, CYP2D6 and CYP3A4) was determined. Experimental operation: The test compound at an incubation concentration of 0, 0.03, 0.1, 0.3, 1, 3, 10, 30 and 100 μM was pre-incubated with the human liver microsome solutions containing 5 enzyme mixed substrates (liver microsome concentration: 0.1 mg/mL) in a water bath at 37° C. for 10 min, respectively, and then a coenzyme factor (NADPH) was added to start the reaction. After incubation in a water bath at 37° C. for 10 min, the reaction was terminated by adding glacial acetonitrile solution containing an internal standard, shaken for 1 min, centrifuged at 4° C. and 10,000 rpm for 10 min, and the supernatant was taken for LC/MS/MS analysis. The amount of metabolites produced by each CYP enzyme substrate was detected. The activity of each CYP isoenzyme was reflected by the production rate of each metabolite. […]
(Liver microsomes are a subcellular fraction often used to study metabolism.)

T1 sequence (Q12809 whole entry): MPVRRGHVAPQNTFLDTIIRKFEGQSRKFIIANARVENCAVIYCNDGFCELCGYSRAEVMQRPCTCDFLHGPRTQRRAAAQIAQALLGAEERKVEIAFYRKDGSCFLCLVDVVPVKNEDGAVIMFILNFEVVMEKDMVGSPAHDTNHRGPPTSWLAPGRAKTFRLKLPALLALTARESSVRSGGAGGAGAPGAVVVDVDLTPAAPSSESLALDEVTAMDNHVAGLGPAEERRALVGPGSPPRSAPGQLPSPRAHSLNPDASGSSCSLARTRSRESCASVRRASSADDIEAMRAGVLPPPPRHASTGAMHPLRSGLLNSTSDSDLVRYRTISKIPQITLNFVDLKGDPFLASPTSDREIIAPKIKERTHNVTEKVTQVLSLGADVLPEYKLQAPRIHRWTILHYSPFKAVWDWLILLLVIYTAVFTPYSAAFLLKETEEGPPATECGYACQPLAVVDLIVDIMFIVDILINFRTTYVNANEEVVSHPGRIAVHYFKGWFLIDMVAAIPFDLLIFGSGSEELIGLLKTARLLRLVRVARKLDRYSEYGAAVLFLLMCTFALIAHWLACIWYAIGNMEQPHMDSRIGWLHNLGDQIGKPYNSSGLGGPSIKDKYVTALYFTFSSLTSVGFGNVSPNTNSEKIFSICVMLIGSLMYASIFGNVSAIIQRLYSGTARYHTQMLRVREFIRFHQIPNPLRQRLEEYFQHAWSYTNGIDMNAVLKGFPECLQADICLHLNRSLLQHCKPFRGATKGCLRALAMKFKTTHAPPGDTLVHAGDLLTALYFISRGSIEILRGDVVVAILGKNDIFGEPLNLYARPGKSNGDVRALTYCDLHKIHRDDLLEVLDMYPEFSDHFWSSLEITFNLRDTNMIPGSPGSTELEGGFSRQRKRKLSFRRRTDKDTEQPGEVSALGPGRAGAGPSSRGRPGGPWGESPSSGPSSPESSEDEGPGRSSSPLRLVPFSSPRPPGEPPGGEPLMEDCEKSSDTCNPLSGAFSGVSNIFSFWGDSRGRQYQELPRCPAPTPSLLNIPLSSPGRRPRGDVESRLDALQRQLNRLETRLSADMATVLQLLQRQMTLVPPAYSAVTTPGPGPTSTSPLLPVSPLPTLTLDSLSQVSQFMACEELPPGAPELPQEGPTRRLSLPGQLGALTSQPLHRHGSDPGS

As for `N#Cc1ccc(COc2cccc(-c3ccc(Cc4nc5sc(C(=O)O)cc5n4C[C@@H]4CCO4)c(F)c3)n2)c(F)c1` [Compound 6, (S)-2-(4-(6-((4-cyano-2-fluorobenzyl)oxy)pyridin-2-yl)-2-fluorobenzyl)-1-(oxetan-2-ylmethyl)-1H-thieno[2,3-d]imidazole-5-carboxylic acid], in data set [1], the “clearance rate in monkeys” value is on record as “low clearance rate” and the half-life in monkeys result is reported as “long half-life”. In addition, the bioavailability in data set [2] was more than 25%. The IC50 in data set [3] is more than 40 µM. In addition, in data set [4], the IC50 was more than 50 µM.

A word on the bioavailability: it is dose-corrected exposure relative to a reference, in per cent. A higher bioavailability goes with good availability. What is called IC50 is the concentration that gives 50% inhibition.
